Tests used:
[1] = target: human recombinant IRAK4 protein (Homo sapiens (Human), UniProt Q9NWZ3); experiment: IRAK4 enzyme assay (mass spectrometry readout); type: biochemical; conditions: 3 mM ATP, 0.2 nM enzyme; geometric mean of at least n=2, * single experiment
In short: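 0.2 nM IRAK4 preincubated 15 min at room temperature with compound (10-point half-log series, top 1 μM or 10 μM) in pH 7.4 Tris buffer with 3 mM ATP; 10 μM peptide substrate added, 2 h at room temperature, formic acid stop. Phospho/unphospho peptide ratio by LC-MS/MS; potency from curve fit, geometric mean of n≥2 or single run.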

[2] = system: IL-1β stimulated IL-8 release in hTHP1 cells; experiment: IL-1β-induced IL-8 release in human THP-1 monocyte cell line; type: cell-based; conditions: Homo sapiens, THP-1, 18 h, THP-1 cells, IL-1β 1.8 ng/mL, geometric mean of at least n=2, * n = 1, read-out: hTHP1, IL1β stim, IL8 release red. IC50
Procedure: Effect of IRAK4 Inhibitors on IL-1β-Induced Cytokine Release in Human THP-1 Monocyte Cell Line
THP-1 cells were cultured in RPMI 1640 (Gibco 72400-021) containing 10% FBS (Gibco 10270-106), 1 mM Na-pyruvate (Gibco 11360-070) and 100 U/mL Penicillin-Streptomycin (Gibco 15140-122). Cells were plated at 5×10^4 cells per well in 384 well Echo certified plates (Labcyte PPT-0200) to which compounds had been added at various concentrations (10 point half log dose response with a final top concentration of 10 μM) using an Echo 655 (Labcyte Inc). The plate was incubated for 1 h at 37° C., then recombinant […] (R&D Systems 201-LB-025/CF) was added to a final concentration of 1.8 ng/mL. The plates were incubated at 37° C. for 18h. The plates were centrifuged at 250×g for four minutes, then 1.6 μL of the cell supernatant was transferred to a white low volume 384 well plate (Greiner #784075) using acoustic dispensing on an Echo 655. Next, 200 nL of acceptor bead (5 mg/mL) and biotinylated anti-IL-8 antibody (500 nM) was added using acoustic dispensing (beads and antibody were from a PerkinElmer 18 Alpha LISA detection kit, AL224C). The plate was sealed, briefly centrifuged, then incubated at room temperature for 1 h. Afterwards, 200 nL of donor bead solution (5 mg/mL) was added, the plate sealed and briefly centrifuged, then incubated for 1 h before being read on an Envision plate reader to allow determination the concentration of IRAK4 inhibitor required to effect a 50% reduction in the amount of IL-8 released following IL-1β stimulation in THP1 cells (Table 2). The quantified data were analysed in Genedata Screener 15 (Genedata AG). Data presented are the geometric mean of at least n=2, or as denoted by an * are obtained from a single experiment.

Sequence of human recombinant IRAK4 protein (Q9NWZ3 whole entry): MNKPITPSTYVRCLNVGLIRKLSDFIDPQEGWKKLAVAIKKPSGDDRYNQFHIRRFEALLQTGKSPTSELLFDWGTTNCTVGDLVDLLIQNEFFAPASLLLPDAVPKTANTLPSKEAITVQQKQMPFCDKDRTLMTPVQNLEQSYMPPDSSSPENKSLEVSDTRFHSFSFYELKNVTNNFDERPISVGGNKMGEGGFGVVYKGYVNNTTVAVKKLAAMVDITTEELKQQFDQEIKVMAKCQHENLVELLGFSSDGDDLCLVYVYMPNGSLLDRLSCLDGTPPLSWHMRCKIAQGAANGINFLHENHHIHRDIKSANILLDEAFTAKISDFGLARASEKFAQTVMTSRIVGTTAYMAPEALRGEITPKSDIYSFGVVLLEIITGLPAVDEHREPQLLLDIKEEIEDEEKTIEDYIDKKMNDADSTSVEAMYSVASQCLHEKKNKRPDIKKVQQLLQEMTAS

COc1cc2nn([C@@H]3CC[C@@H](O)C[C@H]3C)cc2cc1C(=O)Nc1cnc2cccnn12 [Example 89, 2-((1R,2R,4R)-4-hydroxy-2-methylcyclohexyl)-N-(imidazo[1,2-b]pyridazin-3-yl)-6-methoxy-2H-indazole-5-carboxamide]
IC50 [1]: 1.1 nM | IC50 [2]: 31 nM
